Measured values reported in PubChem BioAssay AID2060336 (Molecular Pharmacology Branch, DTP, NCI, 2025).

Test system: 958767-090-R-J1-PDC spheroid growth
Experiment: Anticancer human tumor 958767-090-R-J1-PDC patient-derived head and neck squamous carcinoma cell line growth inhibition [IpAb]
Conditions: spheroids with HUVEC and MSC; for IC50: curve of first compound; for viability, T/C: stronger effect = lower value
Summary of the method: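 Spheroids of 60% malignant cells, 25% HUVEC and 15% MSC were exposed to targeted agents combined with ipatasertib or abemaciclib. Doses started at or near clinical Cmax (10 microM when unknown) and fell in half-log steps.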

[1] = second compound 0.01 µM, first compound 0.00316 µM
[2] = second compound 0.01 µM, first compound 0.01 µM
[3] = second compound 0.01 µM, first compound 0.0316 µM
[4] = second compound 0.01 µM, first compound 0.1 µM
[5] = second compound 0.0316 µM, first compound 0.00316 µM
[6] = second compound 0.0316 µM, first compound 0.01 µM
[7] = second compound 0.0316 µM, first compound 0.0316 µM
[8] = second compound 0.0316 µM, first compound 0.1 µM
[9] = second compound 0.1 µM, first compound 0.00316 µM
[10] = second compound 0.1 µM, first compound 0.01 µM
[11] = second compound 0.1 µM, first compound 0.0316 µM
[12] = second compound 0.1 µM, first compound 0.1 µM
[13] = second compound 0.316 µM, first compound 0.00316 µM
[14] = second compound 0.316 µM, first compound 0.01 µM
[15] = second compound 0.316 µM, first compound 0.0316 µM
[16] = second compound 0.316 µM, first compound 0.1 µM
[17] = second compound 1 µM, first compound 0.00316 µM
[18] = second compound 1 µM, first compound 0.01 µM
[19] = second compound 1 µM, first compound 0.0316 µM
[20] = second compound 1 µM, first compound 0.1 µM
[21] = second compound 0.01 µM, first compound 0.316 µM
[22] = second compound 0.01 µM, first compound 1 µM
[23] = second compound 0.01 µM, first compound 3.16 µM
[24] = second compound 0.01 µM, first compound 10 µM
[25] = second compound 0.0316 µM, first compound 0.316 µM
[26] = second compound 0.0316 µM, first compound 1 µM
[27] = second compound 0.0316 µM, first compound 3.16 µM
[28] = second compound 0.0316 µM, first compound 10 µM
[29] = second compound 0.1 µM, first compound 0.316 µM
[30] = second compound 0.1 µM, first compound 1 µM
[31] = second compound 0.1 µM, first compound 3.16 µM
[32] = second compound 0.1 µM, first compound 10 µM
[33] = second compound 0.316 µM, first compound 0.316 µM
[34] = second compound 0.316 µM, first compound 1 µM
[35] = second compound 0.316 µM, first compound 3.16 µM
[36] = second compound 0.316 µM, first compound 10 µM
[37] = second compound 1 µM, first compound 0.316 µM
[38] = second compound 1 µM, first compound 1 µM
[39] = second compound 1 µM, first compound 3.16 µM
[40] = second compound 1 µM, first compound 10 µM
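Throughout, for viability, T/C: 100% = DMSO vehicle control wells.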

Row | Compound | IC50 (second compound 0.01 µM) [µM] | IC50 (second compound 0.0316 µM) [µM] | IC50 (second compound 0.1 µM) [µM] | IC50 (second compound 0.316 µM) [µM] | IC50 (second compound 1 µM) [µM] | viability, T/C [3] [%] | viability, T/C [4] [%] | viability, T/C [7] [%] | viability, T/C [8] [%] | viability, T/C [11] [%] | viability, T/C [12] [%] | viability, T/C [15] [%] | viability, T/C [16] [%] | viability, T/C [19] [%] | viability, T/C [20] [%] | viability, T/C [21] [%] | viability, T/C [22] [%] | viability, T/C [25] [%] | viability, T/C [26] [%] | viability, T/C [29] [%] | other results
1 | CC(C)n1nc(-c2ccc3oc(N)nc3c2)c2c(N)ncnc21 + CCN1CCN(Cc2ccc(Nc3ncc(F)c(-c4cc(F)c5nc(C)n(C(C)C)c5c4)n3)nc2)CC1 | 0.0157 | 0.0135 | 0.0228 | 0.0248 | > 0.1 | 39.2 | 33.8 | 40.5 | 36.7 | 45.5 | 35.4 | 48.8 | 40 | 65.5 | 50.7 | – | – | – | – | – | viability, T/C (second compound 0.01 µM, first compound 0.000316 µM): 91.4%; viability, T/C (second compound 0.01 µM, first compound 0.001 µM): 92.4%; viability, T/C [1]: 84.2%; viability, T/C [2]: 57.2%; viability, T/C (second compound 0.0316 µM, first compound 0.000316 µM): 79.5%; viability, T/C (second compound 0.0316 µM, first compound 0.001 µM): 80.5%; viability, T/C [5]: 82.6%; viability, T/C [6]: 54.1%; viability, T/C (second compound 0.1 µM, first compound 0.000316 µM): 68.7%; viability, T/C (second compound 0.1 µM, first compound 0.001 µM): 73.1%; viability, T/C [9]: 70.3%; viability, T/C [10]: 61.6%; viability, T/C (second compound 0.316 µM, first compound 0.000316 µM): 70.6%; viability, T/C (second compound 0.316 µM, first compound 0.001 µM): 56.9%; viability, T/C [13]: 66.1%; viability, T/C [14]: 54.1%; viability, T/C (second compound 1 µM, first compound 0.000316 µM): 78.3%; viability, T/C (second compound 1 µM, first compound 0.001 µM): 75.9%; viability, T/C [17]: 64.8%; viability, T/C [18]: 68.4%
2 | CC1(C)CCC(CN2CCN(c3ccc(C(=O)NS(=O)(=O)c4ccc(NCC5CCOCC5)c([N+](=O)[O-])c4)c(Oc4cnc5[nH]ccc5c4)c3)CC2)=C(c2ccc(Cl)cc2)C1 + CCN1CCN(Cc2ccc(Nc3ncc(F)c(-c4cc(F)c5nc(C)n(C(C)C)c5c4)n3)nc2)CC1 | 5.78 | 4.93 | 4.09 | 3.89 | 4.05 | 88.7 | 90.8 | 75.5 | 83.4 | 63.5 | 60.7 | 57 | 50.6 | 61.2 | 61.3 | 71.5 | 95.8 | 59.4 | 70.9 | 66.6 | viability, T/C [23]: 121%; viability, T/C [24]: 10.4%; viability, T/C [27]: 102%; viability, T/C [28]: 5.08%; viability, T/C [30]: 50.3%; viability, T/C [31]: 70%; viability, T/C [32]: 7.55%; viability, T/C [33]: 57.2%; viability, T/C [34]: 57.2%; viability, T/C [35]: 79.2%; viability, T/C [36]: 3.5%; viability, T/C [37]: 59.8%; viability, T/C [38]: 59.6%; viability, T/C [39]: 70.9%; viability, T/C [40]: 4.55%
3 | CCCS(=O)(=O)Nc1ccc(F)c(C(=O)c2c[nH]c3ncc(-c4ccc(Cl)cc4)cc23)c1F + CCN1CCN(Cc2ccc(Nc3ncc(F)c(-c4cc(F)c5nc(C)n(C(C)C)c5c4)n3)nc2)CC1 | > 10 | 9.2 | 8.26 | > 10 | > 10 | 93.1 | 93.6 | 88.5 | 93.2 | 83.3 | 82 | 66.1 | 54.8 | 89.5 | 78.6 | 91.4 | 93.7 | 92.1 | 73.6 | 82.9 | viability, T/C [23]: 87.7%; viability, T/C [24]: 60.2%; viability, T/C [27]: 62%; viability, T/C [28]: 48.3%; viability, T/C [30]: 70.8%; viability, T/C [31]: 71.7%; viability, T/C [32]: 45.6%; viability, T/C [33]: 56.7%; viability, T/C [34]: 67.8%; viability, T/C [35]: 67.1%; viability, T/C [36]: 44.4%; viability, T/C [37]: 74.9%; viability, T/C [38]: 79.5%; viability, T/C [39]: 69.5%; viability, T/C [40]: 51.9%
4 | COc1c(OCCCN2CCOCC2)ccc2c3n(c(=NC(=O)c4cnc(N)nc4)nc12)CCN3 + CCN1CCN(Cc2ccc(Nc3ncc(F)c(-c4cc(F)c5nc(C)n(C(C)C)c5c4)n3)nc2)CC1 | 0.00795 | 0.00866 | < 0.00316 | 0.00434 | 0.013 | 31.5 | 12.7 | 28.5 | 17 | 22.5 | 15.9 | 22.9 | 19.4 | 37 | 26.9 | 6.31 | 3.91 | 5.97 | 5.05 | 7.66 | viability, T/C [1]: 64.5%; viability, T/C [2]: 44.5%; viability, T/C [5]: 62.6%; viability, T/C [6]: 48.8%; viability, T/C [9]: 44.3%; viability, T/C [10]: 39.5%; viability, T/C [30]: 6.13%; viability, T/C [13]: 53%; viability, T/C [14]: 42.6%; viability, T/C [33]: 8.1%; viability, T/C [34]: 7.06%; viability, T/C [17]: 74.1%; viability, T/C [18]: 53.5%; viability, T/C [37]: 14.7%; viability, T/C [38]: 12.4%
5 | Cc1nc(NC(=O)N2CCCC2C(N)=O)sc1-c1ccnc(C(C)(C)C(F)(F)F)c1 (stereo not given) + CCN1CCN(Cc2ccc(Nc3ncc(F)c(-c4cc(F)c5nc(C)n(C(C)C)c5c4)n3)nc2)CC1 | 0.171 | 0.059 | < 0.0316 | < 0.0316 | 0.141 | 65.3 | 56.4 | 57.6 | 40.5 | 49.9 | 43.3 | 39.5 | 39.3 | 62.6 | 56.2 | 42.7 | 31.7 | 36.4 | 27.2 | 34.9 | viability, T/C [23]: 19.3%; viability, T/C [24]: 11.2%; viability, T/C [27]: 15.9%; viability, T/C [28]: 9.45%; viability, T/C [30]: 24.9%; viability, T/C [31]: 15.8%; viability, T/C [32]: 9.36%; viability, T/C [33]: 27.6%; viability, T/C [34]: 20.7%; viability, T/C [35]: 17.1%; viability, T/C [36]: 10.8%; viability, T/C [37]: 38.3%; viability, T/C [38]: 31.5%; viability, T/C [39]: 19.9%; viability, T/C [40]: 13.2%
